Measured values published in patent US20230416196A1, “DIMER OF BIGUANIDINES AND THEIR THERAPEUTIC USES” (INSTITUT CURIE, priority 2020, published 2023).

Columns and labels:
[1] = system: mitochondrial NAD^+ and NADH in aMDM; assay: Mass spectrometry-based metabolomics of mitochondrial NAD+ and NADH in aMDM; format: cell-based, human; settings: treatment during macrophage activation; FIG. 11D
Description: Mitochondrial extraction. Mitochondria were isolated using the Qproteome Mitochondria Isolation Kit (Qiagen, 37612) according to the manufacturer's protocol. In brief, cells were washed and centrifuged at 500× g for 10 min and the supernatant was removed. Cells were then washed with a solution of 0.9% NaCl (Sigma-Aldrich, 57653-250G) and resuspended in ice-cold Lysis Buffer and incubated at 4° C. for 10 min. The lysate was then centrifuged at 1000×g for 10 min at 4° C. and the supernatant carefully removed. Subsequently, the cell pellet was resuspended in disruption buffer. Complete cell disruption was obtained by using a dounce homogenizer (mitochondria for ICP-MS) or a blunt-ended needle and a syringe (mitochondria for metabolomics). The lysate was then centrifuged at 1000× g for 10 min at 4° C. and the supernatant transferred to a clean tube. The supernatant was then centrifuged at 6000× g for 10 min at 4° C. to obtain pellets containing mitochondria.
Quantitative metabolomics. In a typical experiment 1.5 million cells were used for total extracts and 15 million cells for mitochondrial extracts. Cells were harvested and the supernatant removed to generate the corresponding cell pellets. […] Peak detection and integration of the analytes were performed using the Agilent Mass Hunter quantitative software (B.07.01). […]

[2] = Maximum tolerated dose; settings: stated relative to the 0.3 mg/kg/day dose used
[3] = system: lymphocytes (CD4, CD8); assay: Activation of CD4 and CD8 lymphocytes (CD25, CD69 flow cytometry); format: cell-based, human; settings: LCC-12 10 μM, 48 h, CD3/CD28 activation; FIG. 6A-B
Description: (§1) CD4 Lymphocytes. Peripheral blood samples were collected from healthy donors (Etablissement Français du Sang). CD4 lymphocytes were isolated by negative magnetic sorting using microbeads according to the manufacturer's instructions (Miltenyi Biotec, 130-096-533) and cultured in RPM11640 supplemented with glutamine and 10% fetal bovine serum. CD4 lymphocytes were activated for 48 h using CD3/CD28 antibodies (2.5 μg/mL), in presence of LCC-12 (10 μM). The activation status of the lymphocytes was assessed by measuring CD25 and CD69 surface markers by flow cytometry.
as §1, with “CD8” for “CD4”, “130-096-495)” for “130-096-533)”, “activated” for “activated for”

[4] = system: dendritic cells; assay: Activation of dendritic cells (CD40, CD83, CD80, CD86 flow cytometry); format: cell-based, human; settings: LCC-12 10 μM, 24 h, LPS; FIG. 6E
Description: Dendritic cells. Peripheral blood samples were collected from healthy donors (Etablissement Français du Sang). Pan monocytes were isolated by negative magnetic sorting using microbeads according to the manufacturer's instructions (Miltenyi Biotec, 130-096-537), and cultured in RPMI 1640 supplemented with glutamine, 10% fetal bovine serum and treated with granulocyte-macrophage colony-stimulating factor (GM-CSF, 100 ng/mL) and IL-4 (10 ng/mL) to induce differentiation into dendritic cells (DC). At day 5 of differentiation, DC were treated with lipopolysaccharides (LPS, 100 ng/mL, 24 h) to generate activated DC and were co-treated with LCC-12 (in-house, 10 μM, 24 h). The activation status of the dendritic cells was assessed by measuring CD40, CD83, CD80 and CD86 surface markers by flow cytometry.

[5] = system: monocytes; assay: Activation of monocytes (CD25, CD80 flow cytometry); format: cell-based, human; settings: LCC-12 10 μM, 24 h, LPS; FIG. 6D
Description: Monocytes. Peripheral blood samples were collected from healthy donors (Etablissement Français du Sang). Pan monocytes were isolated by negative magnetic sorting using microbeads according to the manufacturer's instructions (Miltenyi Biotec, 130-096-537), and cultured in RPMI 1640 supplemented with glutamine, 10% fetal bovine serum. Monocytes were treated with lipopolysaccharides (LPS, 100 ng/mL, 24 h) to generate activated monocytes and were co-treated with LCC-12 (in-house, 10 μM, 24 h). The activation status of the monocytes was assessed by measuring CD25 and CD80 surface markers by flow cytometry.

SMILES: N=C(N)NC(=N)NCCCCCCCCCCCCNC(=N)NC(=N)N [LCC-12, lipophilic copper clamp C12]
- mitochondrial NAD^+ and NADH levels [1]: decrease of both mitochondrial NAD^+ and NADH
- maximum tolerated dose (MTD) [2]: 0.3 mg/kg/day, a dose 10 times lower than the maximum tolerated dose
- activation of lymphocytes [3]: decreases the activation
- activation of dendritic cells [4]: decreases the activation
- activation of monocytes [5]: decreases the activation
